This note sets out measurements from US5175183A, “Lipoxygenase inhibiting compounds” (Abbott Laboratories, priority 1991, dated 1992).

One test has as its target T1, 5-lipoxygenase (Rattus norvegicus, UniProt P12527).
T1 construct: 20,000×g supernatant from homogenized RBL-1 cells; endogenous in cells; host or cells: RBL-1 cells (20,000×g supernatant of homogenate)
T1 sequence (P12527 1-673): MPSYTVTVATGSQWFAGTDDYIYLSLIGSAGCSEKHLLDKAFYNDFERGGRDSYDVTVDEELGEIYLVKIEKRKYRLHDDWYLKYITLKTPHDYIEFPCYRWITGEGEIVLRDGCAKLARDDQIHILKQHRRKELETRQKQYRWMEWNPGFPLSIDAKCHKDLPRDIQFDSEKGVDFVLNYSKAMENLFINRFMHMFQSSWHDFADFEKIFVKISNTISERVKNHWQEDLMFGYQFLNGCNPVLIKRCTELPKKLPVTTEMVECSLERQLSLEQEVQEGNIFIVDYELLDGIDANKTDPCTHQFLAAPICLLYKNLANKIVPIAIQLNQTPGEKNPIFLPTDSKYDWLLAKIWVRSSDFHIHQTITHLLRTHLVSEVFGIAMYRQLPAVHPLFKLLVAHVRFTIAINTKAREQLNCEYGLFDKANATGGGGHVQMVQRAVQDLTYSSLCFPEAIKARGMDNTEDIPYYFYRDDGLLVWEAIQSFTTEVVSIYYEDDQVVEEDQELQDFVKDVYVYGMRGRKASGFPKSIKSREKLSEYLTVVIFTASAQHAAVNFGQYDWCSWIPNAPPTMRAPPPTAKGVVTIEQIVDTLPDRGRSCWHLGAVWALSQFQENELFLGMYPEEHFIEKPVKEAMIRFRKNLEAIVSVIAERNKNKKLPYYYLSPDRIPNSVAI
The test is described as follows: In Vitro 5-lipoxygenase Inhibitory Activity (20,000×g supernatant from homogenized RBL-1 cells). Format: biochemical. The conditions noted are these: read-out: IC50 (concentration of compound producing 50% enzyme inhibition). How it is done:
The compounds of this invention are potent inhibitors of 5-lipoxygenase. Their activity was determined using the 20,000×g supernatant from homogenized RBL-1 cells in a similar manner as that described by Dyer and coworkers (Dyer, R. D.; Haviv, F.; Hanel, A. M.; Bornemier, D. A.; Carter, G. W. Fed. Proc., Fed. Am. Soc. Exp. Biol. 1984, 43, 1462A). IC50 values (concentration of compound producing 50% enzyme inhibition) were calculated by linear regression analysius of percentage inhibition versus log inhibitor concentration plots.

The subject of the next test is Leukotriene Biosynthesis. The test is described as follows: In Vivo Inhibition of Leukotriene Biosynthesis (rat peritoneal anaphylaxis model). Particulars: oral gavage 200 μmol/kg one hour prior to antigen challenge, peritoneal fluid leukotrienes 15 minutes after challenge, vs mean of control group. How it is done: Inhibition of the biosynthesis of leukotrienes in vivo after oral administration of compound was determined using a rat peritoneal anaphylaxis model. In this model rats were injected intraperitoneally (ip) with rabbit antibody to bovine serum albumin (BSA) and three hours later injected ip with BSA to induce an antigen-antibody response. Rats were sacrificed 15 minutes after this challenge and the peritoneal fluids were collected and analyzed for leukotriene levels. Test compound was administered by oral gavage one hour prior to the antigen challenge. Percent inhibition values were determined by comparing the treatment group to the mean of the control group.

In the case of `O=C(NO)N[C@@H]1C[C@H]1c1ccccc1` (relative stereo) [Example 11, N'-hydroxy-N-1-(trans-2-phenylcyclopropyl)urea], on 5-lipoxygenase, the IC50 was 28 µM.

Regarding `CC(NC(=O)NO)c1ccc(OCc2ccccc2)cc1` (stereo not shown) [Example 1, N'-hydroxy-N-[1-(phenylmethoxyphenyl)ethyl]urea], the IC50 at 5-lipoxygenase amounted to 1.2 µM.

With `CC(NC(=O)N(C)O)c1ccc(OCc2ccccc2)cc1` (stereo not shown) [Example 2, N'-hydroxy-N'-methyl-N-[1-(4-phenylmethoxyphenyl)ethyl]urea], at 5-lipoxygenase, the IC50 was 0.3 µM. In the test with Leukotriene Biosynthesis, the “Percent Inhibition With 200 μmol/kg oral dose” value worked out at 86%.

Take `CCCCOc1ccc(C(C)NC(=O)NO)cc1` (stereo not shown) [Example 3, N'-hydroxy-N-[1-(4-butoxyphenyl)ethyl]urea]: at 5-lipoxygenase, the IC50 amounted to 3.8 µM.

With `CC(NC(=O)NO)c1ccc2ccccc2c1` (stereo not shown) [Example 4, N'-hydroxy-N-[(1-naphth-2-yl)ethyl]urea], the IC50 at 5-lipoxygenase turned out to be 4.6 µM.

With `CN(O)C(=O)NCc1cccs1` [Example 6, N'-hydroxy-N'-methyl-N-[(thien-2-yl)methyl]urea], the IC50 at 5-lipoxygenase worked out at 3.6 µM. The “Percent Inhibition With 200 μmol/kg oral dose” value in the test with Leukotriene Biosynthesis is listed as 67%.

For `CC(NC(=O)NO)c1cc2ccccc2o1` (stereo not shown) [Example 7, N'-hydroxy-N-[(1-benzofuran-2-yl)ethyl]urea], the IC50 at 5-lipoxygenase stood at 12.7 µM.

For the molecule `CN(O)C(=O)NCc1ccsc1` [Example 8, N'-hydroxy-N'-methyl-N-[(thienyl-3-yl)methyl]urea], the IC50 on 5-lipoxygenase is 4 µM. In addition, the “Percent Inhibition With 200 μmol/kg oral dose” value with Leukotriene Biosynthesis came out at 92%.

As for `Cc1cc(C(C)NC(=O)NO)c(C)s1` (stereo not shown) [Example 9, N'-hydroxy-N-[1-(2,5-dimethylthien-3-yl)ethyl]urea], the IC50 on 5-lipoxygenase came out at 8.4 µM.

Turning to `CC(NC(=O)N(C)O)c1cc2ccccc2o1` (stereo not shown) [Example 10, N'-hydroxy-N'-methyl-N-[(1-benzofur-2-yl)-ethyl]urea], the IC50 on 5-lipoxygenase amounted to 0.27 µM. In the test on Leukotriene Biosynthesis, the “Percent Inhibition With 200 μmol/kg oral dose” value is on record as 50%.

Consider `O=C(NCc1ccsc1)N(O)CCO` [Example 12, N'-hydroxy-N'-(2-hydroxyethyl)-N-[(thien-3-yl)-methyl]urea], for which, on 5-lipoxygenase, the IC50 is 13 µM. Also, in the test with Leukotriene Biosynthesis, the “Percent Inhibition With 200 μmol/kg oral dose” value is reported as 79%.

With `Cc1cc(C(C)NC(=O)N(C)O)c(C)s1` (stereo not shown) [Example 13, N'-hydroxy-N'-methyl-N-[1-(2,5-dimethylthien 3-yl)ethyl]urea], the IC50 on 5-lipoxygenase came out at 0.5 µM. Also, the “Percent Inhibition With 200 μmol/kg oral dose” value in the test with Leukotriene Biosynthesis amounted to 49%.

Take “N'-hydroxy-N'methoxy-N-[(1-naphth-2-yl)ethyl]urea [Example 5]”: the IC50 on 5-lipoxygenase turned out to be 27 µM.
